The values that follow come from PMC4581254, “Identification of Hydroxyanthraquinones as Novel Inhibitors of Hepatitis C Virus NS3 Helicase” (International Journal of Molecular Sciences, 2015).

Data set [1] addresses T1, HCV NS3 helicase (Hepatitis C virus genotype 1b, UniProt P26662).
T1 construct: The full-length HCV NS3 protein, with serine protease and NTPase/helicase activities; made in house
The experiment in a line: FRET-based fluorescence helicase assay (dsRNA unwinding). It is filed as biochemical. On the procedure: A fluorescence helicase assay based on FRET [26, 27], with modifications in the fluorescent dyes, was used to examine NS3 helicase inhibition by different compounds. […] The concentration of the capture strand was optimized to 400 nM based on the Z′ value; the Z′ value validates assay conditions as having reliability and reproducibility when its value is close to 1.
The FRET-based fluorescence helicase assay was performed as described previously, with modifications in the fluorescent dyes used. The dsRNA substrate was prepared by annealing the 5′ Alexa Fluor 700-labeled fluorescence strand to the 3′ BHQ3-labeled quencher strand in a 1:2 molar ratio. The dsRNA substrate contained the 3′-overhang that is necessary for the NS3 helicase to bind to it prior to duplex unwinding. The capture strand had sequence complementary to the quencher strand and prevented the unwound duplexes from reannealing. All the nucleic acid strands had the same nucleic acid sequences as described previously and were purchased from Japan Bio Services (Saitama, Japan). The reaction mixture contained 25 mM MOPS-NaOH (pH 6.5), 3 mM MgCl2, 2 mM dithiothreitol, 4 U RNasin (Promega, Madison, WI, USA), 50 nM dsRNA substrate, 400 nM capture strand, 5 mM ATP, a serial dilution of test compounds in DMSO vehicle, and 240 nM NS3 helicase in a total reaction volume of 20 µL. The full-length HCV NS3 protein, with serine protease and NTPase/helicase activities, was expressed and purified as described previously.
The reaction was started by the addition of HCV NS3 helicase and was performed at 37 °C for 30 min in a SpectraMax Gemini XS microplate reader (Molecular Devices, Sunnyvale, CA, USA). The fluorescence intensity was recorded every 20 s for 30 min. Helicase activity was calculated as the initial reaction velocity relative to that of the control (in the absence of a test compound but presence of DMSO vehicle). The IC50 was calculated using KaleidaGraph (Synergy Software, Reading, PA, USA) by fitting plots of % activity vs. [I] using Equation (1) unless otherwise stated: (1) % Activity= 100/1+([I]/IC50)^h where h is the Hill coefficient, and [I] is the inhibitor concentration.

Another data set addresses NS3 helicase. To be noted: read-out: IC50 for NS3 helicase inhibition, cited from earlier work.
The next data set deals with T2, NS3 ATPase activity (Hepatitis C virus genotype 1b, UniProt P26662).
T2 construct: The full-length HCV NS3 protein, with serine protease and NTPase/helicase activities; made in house
Description: ATPase assay ([γ-32P]ATP hydrolysis, thin-layer chromatography). It counts as biochemical. To be noted: autoradiography, poly(U) RNA, 300 nM NS3, 0–100 µM tested. How it is done: As the unwinding ability of NS3 helicase is dependent on ATP hydrolysis, the amount of inorganic phosphate (Pi) released from radioisotope-labeled ATP ([γ-^32P]ATP) was measured to determine the effects of hypericin on the ATPase activity of NS3 (Figure 3). The released ^32Pi was separated by thin-layer chromatography and visualized using autoradiography. The density of the upper spots corresponding to Pi, which represents ATPase activity, decreased dose-dependently, particularly in the concentration range of 1–5 µM hypericin. […] It is thus likely that hypericin inhibits NS3 helicase via the inhibition of ATPase activity.
NS3 ATPase activity was determined directly by monitoring [γ-^32P]ATP hydrolysis by thin-layer chromatography, as described previously. The reaction mixture contained 25 mM MOPS-NaOH (pH 7.0), 1 mM dithiothreitol, 5 mM MgCl2, 5 mM CaCl2, 1 mM [γ-^32P]ATP (Muromachi Yakuhin, Tokyo, Japan), 300 nM NS3, 0.1 μg/μL poly(U) ssRNA (Sigma-Aldrich), and increasing concentrations of hypericin in a total reaction volume of 10 μL. The reaction was conducted at 37 °C for 10 min, and stopped by the addition of 10 mM EDTA. […] The cellulose sheet was dried, and the released [γ-^32P]phosphoric acid was visualized using an Image Reader FLA-9000 (Fuji film, Tokyo, Japan).

The subject of data set [2] is Huh-7 cell line harboring the subgenomic replicon RNAs of HCV genotype 1b strain N. The experiment in a line: HCV replicon assay (luciferase). It is filed as cell-based, Hepatitis C virus. To be noted: for EC50: Hepatitis C virus, HCV subgenomic replicon, genotype 1b strain N, Huh-7, 72 h, mean ± SD of three replicates, read-out: EC50 (inhibition of HCV replication). How it is done: The Huh-7 cell line harboring the subgenomic replicon RNAs of HCV genotype 1b strain N [51] was seeded at 2 × 10^4 cells per well in a 48-well plate and incubated at 37 °C for 24 h. The cells were treated with hypericin or sennidin A at various concentrations at 37 °C for 72 h, and then lysed in cell culture lysis reagent (Promega). A luciferase assay system (Promega) was used to determine the luciferase activity, and the luminescence was measured using a Luminescencer-JNR AB-2100 (ATTO, Tokyo, Japan), corresponding to the expression level of the HCV replicon. The anti-HCV activity of hypericin or sennidin A was calculated as the ratio of the intensity of the luminescence in the sample containing inhibitor to that in the control sample containing DMSO vehicle instead of inhibitor.

The target of a further data set is T3, NS3 RNA-binding activity (Hepatitis C virus genotype 1b, UniProt P26662).
T3 construct: The full-length HCV NS3 protein, with serine protease and NTPase/helicase activities; made in house
The experiment in a line: RNA-binding assay (gel mobility-shift). As to conditions: 32P-labeled ssRNA, 300 nM NS3, 0–100 µM tested. On the procedure:
As RNA binding is required for NS3 helicase activity, the effect of hypericin on NS3 RNA-binding activity was examined by gel mobility-shift assay (Figure 4). As a control, the non-specific binding of ssRNA to bovine serum albumin (BSA) was assessed (lane 2). The density of the upper bands corresponding to the NS3–ssRNA complex, which represents NS3 RNA-binding activity, decreased dose-dependently in the presence of hypericin, particularly in the concentration range of 3–10 µM.
NS3 RNA-binding activity was determined by gel mobility-shift assay, as described previously. The ssRNA (5′-[…]-3′) synthesized by Gene Design (Osaka, Japan) was labeled at the 5′-end with [γ-^32P]ATP (Muromachi Yakuhin) using T4 polynucleotide kinase (Toyobo, Osaka, Japan) at 37 °C for 60 min, and purified using the phenol-chloroform extraction method. The reaction mixture contained 30 mM Tris-HCl (pH 7.5), 100 mM NaCl, 2 mM MgCl2, 1 mM dithiothreitol, 20 U RNasin Plus (Promega), 300 nM NS3, 0.5 nM ^32P-labeled ssRNA, and increasing concentrations of hypericin in a total reaction volume of 20 μL. The reaction was performed at room temperature for 15 min. […] The labeled RNA bands were visualized using an Image Reader FLA-9000 (Fujifilm, Tokyo, Japan).

Another data set in a line: Cytotoxicity assay (MTS). As to conditions: human, Huh-7 replicon cells, mean ± SD of three replicates, read-out: CC50 (reduction in cell viability). It is filed as cell-based. On the procedure: The Huh-7 cell line harboring the subgenomic replicon RNAs of HCV genotype 1b strain N [51] was seeded at 2 × 10^4 cells per well in a 48-well plate and incubated at 37 °C for 24 h. The cells were treated with hypericin or sennidin A at various concentrations at 37 °C for 72 h. The MTS assay was carried out to determine cytotoxicity using a CellTiter 96 aqueous one-solution cell proliferation assay kit (Promega) according to the manufacturer’s instructions. The cytotoxicity of hypericin or sennidin A was calculated as the ratio of the […] in the sample containing inhibitor to that in the control sample containing DMSO vehicle instead of inhibitor.

Data set [3] has as its target T1, HCV NS3 helicase. Description: Gel-based helicase assay. It counts as biochemical. To be noted: compared with the fluorescence helicase assay, Figure S2. On the procedure: A gel-based helicase assay was performed as described previously. The dsRNA substrate was prepared by annealing the 5′ Alexa Fluor 488-labeled fluorescence strand to the non-labeled complementary strand in a 1:2 molar ratio. The dsRNA substrate and the capture strand had the same nucleic acid sequences as those used in the FRET-based fluorescence helicase assay, and were purchased from Japan Bio Services. The reaction mixture for HCV NS3 helicase had the same components as those used in the FRET-based fluorescence helicase assay, with increasing concentrations of a test compound in a total reaction volume of 20 µL, except for the fact that the concentration of the capture strand was 100 nM. The reaction was started by the addition of HCV NS3 helicase and performed at 37 °C for 60 min using the GeneAmp PCR System 2700 (Applied Biosystems, Foster City, CA, USA). […] The helicase activity was calculated as the ratio of the signal intensity derived from ssRNA in the sample containing inhibitor to that in the control sample containing DMSO vehicle instead of inhibitor.

Where [4] appears, read: fluorescence helicase assay, dsRNA substrate, 240 nM NS3, 5 mM ATP, 37 °C, read-out: IC50 for NS3 helicase inhibition.

Counter-ions that a name gives are not always drawn. Like-named read-outs stand apart in the source and are kept apart here.

T1 sequence (P26662 1027-1657): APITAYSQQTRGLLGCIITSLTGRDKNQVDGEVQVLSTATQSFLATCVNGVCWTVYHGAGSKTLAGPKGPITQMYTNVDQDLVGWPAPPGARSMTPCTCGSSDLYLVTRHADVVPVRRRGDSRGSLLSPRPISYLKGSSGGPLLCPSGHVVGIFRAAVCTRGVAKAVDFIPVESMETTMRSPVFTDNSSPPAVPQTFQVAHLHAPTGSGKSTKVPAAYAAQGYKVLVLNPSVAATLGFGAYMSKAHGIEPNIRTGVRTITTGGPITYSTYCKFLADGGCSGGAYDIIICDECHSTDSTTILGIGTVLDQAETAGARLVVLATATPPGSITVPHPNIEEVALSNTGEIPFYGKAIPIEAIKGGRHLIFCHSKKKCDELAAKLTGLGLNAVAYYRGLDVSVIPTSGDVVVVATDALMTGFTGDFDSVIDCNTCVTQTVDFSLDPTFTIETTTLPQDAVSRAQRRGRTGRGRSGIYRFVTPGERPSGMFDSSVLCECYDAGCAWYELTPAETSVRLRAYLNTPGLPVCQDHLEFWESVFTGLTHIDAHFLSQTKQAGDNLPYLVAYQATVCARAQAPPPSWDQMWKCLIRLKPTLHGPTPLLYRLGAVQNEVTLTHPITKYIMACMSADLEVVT
T3 sequence (P26662 1027-1657): as above
T2 sequence (P26662 1027-1657): as above

On to `O=C1c2ccccc2C(=O)c2c1cc(O)c(O)c2O` [1,2,3-trihydroxyanthraquinone], for which the IC50 at HCV NS3 helicase [1] (setting [4]) amounted to 18 µM. For `O=C1c2ccccc2C(=O)c2c(O)c(O)cc(O)c21` [1,2,4-trihydroxyanthraquinone], at HCV NS3 helicase [1], the IC50 is 11 µM. Same read-out and setting: in the case of `O=C1c2ccccc2C(=O)c2c1ccc(O)c2O` [1,2-dihydroxyanthraquinone] it was greater than 200 µM. `O=C1c2ccc(O)c(O)c2C(=O)c2c(O)ccc(O)c21` [1,4,5,6-tetrahydroxyanthraquinone]: at HCV NS3 helicase [1] (setting [4]), the IC50 is 98 µM. For the molecule `O=C1c2c(O)ccc(O)c2C(=O)c2c(O)ccc(O)c21` [1,4,5,8-tetrahydroxyanthraquinone], the IC50 on HCV NS3 helicase [1] (setting [4]) was found to be 6 µM. Consider `O=C1c2ccccc2C(=O)c2c(O)ccc(O)c21` [1,4-dihydroxyanthraquinone], for which the IC50 at HCV NS3 helicase [1] (setting [4]) came out at 54 µM. Consider `O=C1c2cccc(O)c2C(=O)c2cccc(O)c21` [1,5-dihydroxyanthraquinone], for which the IC50 on HCV NS3 helicase [1] (setting [4]) was greater than 200 µM.

In the case of `O=C1c2cccc(O)c2C(=O)c2c(O)cccc21` [1,8-dihydroxyanthraquinone], on HCV NS3 helicase [1] (setting [4]), the IC50 is greater than 200 µM. In the case of `CC(C)CCC[C@@H](C)[C@H]1CC[C@H]2[C@@H]3CC=C4C[C@@H](OS(=O)(=O)O)CC[C@]4(C)[C@H]3CC[C@]12C` [Cholesterol sulfate], the IC50 on NS3 helicase (positive control of the gel-based helicase assay) was 1.7 µM. On to `Cc1cc(O)c2c(=O)c3c(O)cc(O)c4c5c(O)cc(O)c6c(=O)c7c(O)cc(C)c8c1c2c(c34)c(c78)c65` [Hypericin, hypericin], for which the “Concentration range in which NS3 ATPase activity decreased dose-dependently” value at NS3 ATPase activity was in the range of 1 to 5 µM. Moreover, in data set [2] (CC50/EC50 in Huh-7 replicon cells), the “SI, selectivity index (CC50/EC50)” value was found to be 11.7. In addition, the EC50 in data set [2] turned out to be 3.5 ± 0.2 µM. For the same molecule, the “Concentration range in which NS3 RNA-binding activity decreased dose-dependently” value at NS3 RNA-binding activity is 3 to 10 µM. The IC50 on HCV NS3 helicase [1] worked out at 3 µM. The CC50 at 72 h in “Cytotoxicity assay (MTS)” was found to be 41.1 ± 9.5 µM. Besides, the “NS3 helicase inhibition in gel-based helicase assay” value on HCV NS3 helicase [3] is “quite similar to that in the fluorescence helicase assay”.

On to `O=C(O)c1cc(O)c2c(c1)[C@H]([C@@H]1c3cccc(O)c3C(=O)c3c(O)cc(C(=O)O)cc31)c1cccc(O)c1C2=O` [Sennidin A, sennidin A], for which, in data set [2], the EC50 is greater than 80 µM. Also, the IC50 on HCV NS3 helicase [1] (setting [4]) worked out at 0.8 µM. Also, the CC50 at 72 h in the data set “Cytotoxicity assay (MTS)” was greater than 80 µM. On HCV NS3 helicase [3], the “NS3 helicase inhibition in gel-based helicase assay” value is listed as “quite similar to that in the fluorescence helicase assay”. For the molecule `O=C1c2c(O)ccc(O)c2C(=O)c2c(NCCNCCO)ccc(NCCNCCO)c21` [mitoxantrone], the IC50 at NS3 helicase is 6.7 µM.
